Measurements published in paper PMC7466001 (Molecules, 2020).
Where “and” joins values, the source holds several entries; their conditions need not be identical. Equal values may be shown once. Read-outs that look alike come from different tables or passages of the source.

Legend:
[1] = target: T1, rat neurokinin 1 receptor (Rattus norvegicus, UniProt P14600); experiment: Competitive radioligand binding assay using rat brain homogenates, [3H]-[Sar9,Met(O2)11]-Substance P; settings: for Ratio to APT: IC50 ratio to aprepitant, rat NK1R
T1 construct: from tissue; host or cells: rat brain (membrane preparation / homogenate)
T1 sequence (P14600 whole entry): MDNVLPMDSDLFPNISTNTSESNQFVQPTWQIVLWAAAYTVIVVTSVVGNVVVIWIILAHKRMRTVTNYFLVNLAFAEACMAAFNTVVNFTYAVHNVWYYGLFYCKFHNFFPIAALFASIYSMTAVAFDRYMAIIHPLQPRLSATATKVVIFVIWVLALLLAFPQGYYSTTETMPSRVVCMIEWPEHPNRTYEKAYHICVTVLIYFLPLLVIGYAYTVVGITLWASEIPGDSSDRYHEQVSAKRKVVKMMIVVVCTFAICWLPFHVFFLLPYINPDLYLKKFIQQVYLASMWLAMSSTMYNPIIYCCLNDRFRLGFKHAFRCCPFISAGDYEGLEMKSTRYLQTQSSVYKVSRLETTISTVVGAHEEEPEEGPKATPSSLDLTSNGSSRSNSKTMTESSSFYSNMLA
Source text: An important consideration in the search of conjugate vectors for radionuclides is whether the functionalization of a high affinity ligand would not reduce the binding strength for a desired receptor. For the preliminary addressing of this issue in the case of our conjugates, we measured the affinity of compounds 5A–E (uncomplexed precursors) for the rat neurokinin-1 receptor. The human (hNK1R) and the rat (rNK1R) neurokinin 1 receptors differ in their sequences and pharmacology.
In brief, the membrane preparations obtained from rat brains were incubated at 25 °C for 60 min in the presence of a selective radioligand [^3H]-[Sar^9,Met(O2)^11]-Substance P obtained from PerkinElmer, (Waltham, MA, USA) and the increasing concentrations of the tested compounds (each concentration in duplicate). Non-specific binding was measured in the presence of 10 μM cold Substance P. The assay buffer was composed of 50 mM Tris-HCl (pH 7.4), 5 mM MnCl2, bovine serum albumin (BSA) (0.1 mg/mL), bacitracin (100 μg/mL), bestatin (30 μM), phenylmethylsulfonyl fluoride (30 μg/mL), and captopril (10 μM). The reaction total volume was 1 mL. With the incubation having been terminated, a rapid filtration through GF/B Whatman glass fiber strips was done with a M-24 Cell Harvester (Brandel, Gaithersburg, MD, USA). The filters were pre-soaked overnight with 0.5% polyethyleneimine so that the extent of non-specific binding could be minimized. After the filtration, the strips were dried, the filter discs were placed separately in 24-well plates, and a Betaplate Scint scintillation solution (PerkinElmer, Waltham, MA, USA) was added to each well. Radioactivity was measured with a MicroBeta LS scintillation counter, Trilux (PerkinElmer, Waltham, MA, USA). The data came from three independent experiments done in duplicate. The results are presented as IC50 with SEM.

[2] = set-up: method as in PMID 15488686; settings: aprepitant; cited from earlier work
[3] = tested on: rNK1R; set-up: method as in PMID 19426690; settings: cells expressing rNK1R; cited from earlier work
[4] = target: human neurokinin 1 receptor; set-up: method as in PMID 9804700; settings: human receptor binding; cited from earlier work
[5] = tested on: hNK1R; set-up: method as in PMID 19426690; settings: cells expressing hNK1R; cited from earlier work
[6] = Lipophilicity study, distribution in n-octanol/PBS (pH 7.40); type: physicochemical; settings: n-octanol/PBS buffer pH 7.4
Source text: In the course of the lipophilicity study, each isolated DOTA radioconjugate (determined as fully stable in HS) was examined for distribution in the system of n-octanol and a phosphate-buffered saline (PBS) buffer (pH = 7.4) to estimate the lipophilicity of the radiocomplex. The lipophilicity of each radioconjugate (logD), defined as the logarithm of the distribution coefficient (D) is based on the ratio of the radioactivity of the organic phase to the radioactivity of the aqueous phase. The stability of the studied radioconjugate was verified simultaneously during the experiment through the HPLC analysis of the aqueous phase. LogD values of [^68Ga]Ga-5A–[^68Ga]Ga-5E and [^177Lu]Lu-5A–[^177Lu]Lu-5E are listed below in Table 3.
The lipophilicity values of the radioconjugates (logD), expressed as the logarithm of its D in the n-octanol/PBS (pH 7.40) system, mimicking the physiological conditions (Product Properties Test Guidelines of the Office of Prevention, Pesticides and Toxic Substances 830.7550, 1996), were determined right after the SPE method purification and ethanol evaporation processes. A solution of isolated selected radioconjugate in 500 µL of a 0.1 M PBS buffer at pH 7.40 and 500 µL of n-octanol was vigorously stirred and centrifuged (13,500 rpm for 5 min) to separate the immiscible phases. The radioactivities of the aqueous and organic layers were determined using a well-type NaI(Tl) detector. The distribution coefficient was calculated as the ratio of the radioactivity of the radioconjugate in the organic phase to that in the aqueous phase. Each measurement was performed in triplicate and averaged. Simultaneously, the aqueous phases were analyzed by HPLC to check whether the studied radioconjugate remained intact during the experiment.

[7] = type: physicochemical
Method: All APT conjugates with DOTA, Bn-DOTA, and Bn-DOTAGA were radiolabeled with ^68Ga and ^177Lu, while APT conjugates with DTPA were only radiolabeled with ^68Ga. Synthesized radioconjugates were purified using the solid phase extraction (SPE) method before HPLC identification (Figure 2 and Figure 3) and further analyses.
Moreover, in the radiochromatogram of [^177Lu]Lu-DOTA-Bn-Et-APT ([^177Lu]Lu-6A) one can see a small additional signal (about 19.3 min) that is recognized as an early by-product of an interaction with solvent (EtOH) from the purification process. To verify the identity of all synthesized [^68Ga]Ga-radioconjugates in a non-carrier added scale, the non-radioactive stable gallium reference compounds (Ga-5A–Ga-9A and Ga-5A–Ga-5E) were synthesized and characterized by mass spectrometry. […]
The ^68Ga radiolabeling of the DOTA, Bn-DOTA, and Bn-DOTAGA conjugates of APT was performed according to the following procedure: 145 µL of a concentrated solution of [^68Ga]GaCl3 in 0.1 M HCl from the ^68Ge/^68Ga generator (4.9 ÷ 7.2 MBq) was added into the solution of 25 nmol of the selected conjugate in 200 µL of a 0.2 M acetate buffer (pH = 4.5) and heated for 5–10 min at 95 °C. […] The effectiveness of the purification was monitored by HPLC. […]

[8] = uncomplexed precursors, rat brain homogenates, three independent experiments in duplicate, read-out: IC50 ± SEM

Ratio to APT [1] | IC50 [1, 8] | Molecule | IC50 ([1]; IC50, rat brain homogenates) [nM] | IC50 ([1]; IC50 ± SEM, uncomplexed precursors, rat brain homogenates, three independent experiments in duplicate) [nM] | logD [2] | pKB [3] | IC50 [4] [nM] | pKB [5] | logD ([6]; 68Ga-radiolabeled conjugate) | logD ([6]; 177Lu-radiolabeled conjugate) | stability of the radioconjugate after radiosynthesis [7]
19.7 | ~2500 nM and 2500 nM | APT-Ac-Et-DOTA [5E] |  |  |  |  |  |  | −0.231 ± 0.015 | 0.500 ± 0.017 | 
19.1 | ~2500 nM and 2500 nM | APT-Ac-HN-NH-DOTA [5D] |  |  |  |  |  |  | −1.012 ± 0.017 | −0.401 ± 0.015 | 
14.3 | 1800 ± 700 nM | APT-Bu-DOTA [5C] |  |  |  |  |  |  | 0.290 ± 0.018 | 0.777 ± 0.021 | 
5.3 | 690 ± 70 nM | APT-Pr-DOTA [5B] |  |  |  |  |  |  | 0.058 ± 0.016 | 0.654 ± 0.022 | 

Second part, the molecule before the results:

Molecule | Ratio to APT [1] | IC50 [1, 8] | IC50 ([1]; IC50, rat brain homogenates) [nM] | IC50 ([1]; IC50 ± SEM, uncomplexed precursors, rat brain homogenates, three independent experiments in duplicate) [nM] | logD [2] | pKB [3] | IC50 [4] [nM] | pKB [5] | logD ([6]; 68Ga-radiolabeled conjugate) | logD ([6]; 177Lu-radiolabeled conjugate) | stability of the radioconjugate after radiosynthesis [7]
C[C@@H](O[C@H]1OCCN(Cc2n[nH]c(=O)[nH]2)[C@H]1c1ccc(F)cc1)c1cc(C(F)(F)F)cc(C(F)(F)F)c1 [Aprepitant, aprepitant] | 1.0 |  | 128 | 130 ± 60 | 4.8 | 7.3 | 0.09 | 8.7 |  |  | 
APT-Et-DOTA [5A] | 48.2 | 6200 ± 2600 nM |  |  |  |  |  |  | 0.141 ± 0.019 | 0.708 ± 0.021 | 
[^68Ga]Ga-DTPA-(Et-APT)2 [[^68Ga]Ga-9A] |  |  |  |  |  |  |  |  |  |  | immediately unstable
